The values that follow come from patent US4888287A, “Rapid differentiation of fungi from bacteria using polyene antibiotics” (Eastman Kodak Company, priority 1986, dated 1989).

In one series the test system is E. coli. The series is described as follows: Inhibition of RIND IX reduction by E. coli (gram-negative) in solution (Example 1, Table II). Type of series: cell-based, Escherichia coli (ATCC 25922). The procedure: (§1) gram-negative microorganism Escherichia coli (ATCC 25922), gram-positive microorganism Staphylococcus aureus (ATCC 25923), and Candida albicans yeast cells (ATCC 14053), brain heart infusion broth (BHI) and Sabaroud's dextrose broth (SAB) from Difco Laboratories (Detroit, Michigan, U.S.A.), and Aspergillus flavus (ATCC 20047), a mold from American Type Culture Collection (Rockville, Maryland, U.S.A.).
(§2) E. coli and S. aureus were grown overnight in BHI broth at 37° C. C. albicans and A. flavus were grown overnight at 25° C. in SAB broth with agitation. […]
(§3) Test solutions were prepared by adding in order: 1.2 ml of HEPES buffer, 50 μl glucose solution, 1.5 ml of RIND IX dispersion, 100 μl of antibiotic solution, 100 μl of cell suspension and 25 μl of ETA solution. […] Optical density readings (OD) were measured at 635 nm at 0 minutes and after incubation at 37° C. for 30 minutes for test and Control solutions, and the change in density (ΔOD) was determined. Table II below lists the results, expressed as corrected percent inhibition of the reduction of the RIND compound. The corrected percent inhibition is calculated by dividing the difference between the ΔOD obtained from the Control without antibiotic and the ΔOD of the test solution, by ΔOD of the Control without antibiotic. All readings were corrected by subtracting readings of the appropriate background control. […]

The next series deals with S. aureus. The series is described as follows: Inhibition of RIND IX reduction by S. aureus (gram-positive) in solution (Example 1, Table II). Conditions: Method 1, 635 nm, 37° C., 30 min. It is filed as cell-based, Staphylococcus aureus (ATCC 25923). As to the method:
as §1, §2, §3

The subject of another series is C. albicans. The series is described as follows: Inhibition of RIND IX reduction by C. albicans (yeast) in solution (Example 1, Table II). It is filed as cell-based, Candida albicans (ATCC 14053).
Series [1] is described as follows: Reduction potential E1/2 of the quinone nucleus of RIND compounds (Table I). It is filed as physicochemical. As to conditions: quinone nucleus with H in place of the releasing group; aqueous emulsion, DMF, nonionic surfactant, phosphate buffer pH 7; standard calomel electrode. The source says: Examples of such nuclei are presented below.
Preferably, the E1/2 is from about +100 mV to about +400 mV as measured in water, or from about -650 to about -300 mV as measured in acetonitrile. […] Further details of measuring the E1/2 are described below prior to Table I. The desired E1/2 is achieved by appropriate electron withdrawing groups on the CAR-nucleus, or by a strained fused ring attached to the nucleus or by a combination of both.
Representative RIND compounds are listed in Table I below in reference to the following structure: [drawing 3] The E1/2 values in Table I were determined for the quinone nucleus of this structure having a hydrogen atom in place of [drawing 4] The E1/2 values (where available) were measured in an aqueous emulsion of the quinone dissolved in N,N-dimethylformamide, a nonionic surfactant (for example, TRITON X-100) and sodium phosphate buffer (pH 7). A standard calomel electrode was used as a standard. Some E1/2 values (denoted by *) were measured in acetonitrile using a saturated calomel electrode as a standard. E1/2 values not available are denoted by "NA".

The mark [2] stands for this setting: Method 1, 635 nm, 37° C., 30 min.
The mark [3] stands for this setting: Method 2, preincubation for 1 hour, 635 nm.

Method for C. albicans: E. coli and S. aureus were grown overnight in BHI broth at 37° C. C. albicans and A. flavus were grown overnight at 25° C. in SAB broth with agitation. The cells were harvested by centrifugation, washed and resuspended in 0.05 molar N-2-hydroxyethylpiperazine-N'-2-ethanesulfonic acid (HEPES) buffer (pH 7.8).
Dispersions containing RIND compounds were prepared by dissolving, for example, RIND VII from Table I above in N,N-dimethylformamide (DMF) at 16 mg compound per ml of solvent. An aliquot (250 μl) of the resulting solution was added to 500 μl of TRITON X-100 surfactant. This mixture was then added dropwise with stirring to 25 ml of 0.05 molar HEPES buffer.
The following materials were used in this example: stock solutions of RIND IX compound dispersion prepared as described above, glucose (10% in water), trimethyl-1,4-benzoquinone ETA (1.5 mg/ml methanol), and the antibiotics (25 mg/ml in dimethyl sulfoxide, except that filipin was 12.5 mg/ml of solvent). Bacteria and yeast were grown as described above. The approximate final cell concentrations in the assay mixture were 4.2×10^8 cells/ml of E. coli, 7.1×10^8 cells/ml of S. aureus, and 7×10^5 of C. albicans.
Test solutions were prepared by adding in order: 1.2 ml of HEPES buffer, 50 μl glucose solution, 1.5 ml of RIND IX dispersion, 100 μl of antibiotic solution, 100 μl of cell suspension and 25 μl of ETA solution. Cell control solutions contained all reagents except antibiotics. Background controls consisted of both buffer and solution controls. The buffer control contained all reagents except antibiotics and cells. The solution control contained all reagents except cells. Optical density readings (OD) were measured at 635 nm at 0 minutes and after incubation at 37° C. for 30 minutes for test and Control solutions, and the change in density (ΔOD) was determined. […] The corrected percent inhibition is calculated by dividing the difference between the ΔOD obtained from the Control without antibiotic and the ΔOD of the test solution, by ΔOD of the Control without antibiotic. All readings were corrected by subtracting readings of the appropriate background control.
Solutions containing 2.9 ml HEPES, 50 μl of the antibiotic solution, and 100 μl cell solution were incubated at 37° C. for 30 minutes, centrifuged for 10 minutes and decanted. The resulting pellet was then treated with 1.4 ml HEPES, 50 μl glucose solution, 1.5 ml RIND IX dispersion and 25 μl ETA solution, mixed well and the optical densities recorded as described above in Method 1. The corrected percent inhibition data was calculated as described in Method 1 above.

Consider `C[C@@H]1[C@H](O)[C@@H](C)/C=C/C=C/C=C/C=C/C=C/C=C/C=C/[C@H](O[C@@H]2O[C@H](C)[C@@H](O)[C@H](N)[C@@H]2O)C[C@@H]2O[C@](O)(C[C@@H](O)C[C@@H](O)[C@H](O)CC[C@@H](O)C[C@@H](O)CC(=O)O[C@H]1C)C[C@H](O)[C@H]2C(=O)O` [Amphotericin B, amphotericin B], for which the “Corrected % Inhibition” value in the series on E. coli (setting [2]) worked out at 15.1%.
As for `C[C@@H]1C/C=C/C=C/C=C/C=C/[C@H](O[C@@H]2O[C@H](C)[C@@H](O)[C@H](N)[C@@H]2O)C[C@@H]2O[C@](O)(C[C@@H](O)C[C@H]3O[C@@H]3/C=C/C(=O)O1)C[C@H](O)[C@H]2C(=O)O` [Natamycin, natamycin], the figures for the “Corrected % Inhibition” value in the series with S. aureus and with C. albicans (setting [2]) were 0.3% and 77.9%, respectively.
With `C[C@@H]1[C@H](O)[C@@H](C)/C=C/C=C/CC/C=C/C=C/C=C/C=C/C(O[C@H]2O[C@H](C)[C@@H](O)[C@H](N)[C@@H]2O)CC2O[C@](O)(CC(O)C(O)CCC(O)CC(O)CC(O)CC(=O)O[C@H]1C)CC(O)C2C(=O)O` (stereo partly shown) [Nystatin, nystatin], the “Corrected % Inhibition” value with S. aureus is reported as 9.8%; in the series with C. albicans (setting [2]), 76.2%.
In the case of `CN(CC1=C(c2ccccc2)C(=O)C2=C(CCC2)C1=O)C(=O)Oc1ccc2c3c(cccc13)C(=O)C=C2` [XXX], the E1/2 entry in series [1] is given as “+222 mV”.
Turning to `CN(CC1=C(c2ccccc2)C(=O)C2=C(CCC2)C1=O)C(=O)Oc1ccc(N=Nc2ccc([N+](=O)[O-])cc2S(C)(=O)=O)c2c(NS(=O)(=O)c3cccc(S(N)(=O)=O)c3)cccc12` [XX], the E1/2 result in series [1] is on record as “+222 mV”.
Still for that read-out and setting: in the case of `COc1cccc(C2=C(CN(C)C(=O)Oc3ccc(N=Nc4ccc([N+](=O)[O-])cc4S(C)(=O)=O)c4c(NS(=O)(=O)c5cccc(S(N)(=O)=O)c5)cccc34)C(=O)C3=C(CCCC3)C2=O)c1` [X] it was “+154 mV”.
candicidin: the “Corrected % Inhibition” value in the series on E. coli (setting [3]) turned out to be 12.5%; in the series on C. albicans (setting [3]) it was 62.8%.
